Assay results: patent US20080220416A1, “Compositions for Inhibiting Cell Growth and Inducing Apoptosis in Cancer Cells and Methods of Use Thereof” (THE BOARD OF TRUSTEES OF THE UNIVERSITY OF ILLINOI, priority 2004, published 2008)
Square brackets hold non-standard residues; d marks the D form. Peptide text beside a SMILES is read from it. * marks the point of attachment. Nle = CCCC[C@H](N)C(=O)O; Cbz = O=C(OCc1ccccc1)*

Assays:
[1] = system: T47D:A18 breast cancer cells; assay: z-Leu-Leu-Nle-CHO plus Paclitaxel, growth inhibition of T47D:A18 cells; type: cell-based, human; details: 0-0.8 μM with Paclitaxel, 48 h
Experimental: Three different types of breast cancer cells were contacted with varying concentrations of z-Leu-Leu-Nle-CHO (0-0.8 μM) and the mitotic poison Paclitaxel (0.01-1 μM). MDA-MB231 cells were obtained from ATCC (Rockville, Md.). T47D:C42 and T47D:A18 cells were a kind gift of Debra Tonetti (University of Illinois-Chicago). MDA-MB231 cells were cultured in DMEM medium with 10% FBS. T47D:C42 and T47D:A18 cells were propagated in RPMI 1640 with 10% FBS, 100 μM non-essential amino acid and 6 ng/ml insulin. Gamma-secretase inhibitor z-Leu-Leu-Nle-CHO (Calbiochem 565750) was dissolved in DMSO, aliquoted and stored at −80° C. Paclitaxel (Sigma, St. Louis Mo.) was dissolved in DMSO, aliquoted and stored at −80° C.
To determine whether z-Leu-Leu-Nle-CHO treatment potentiates the effect of Paclitaxel on human breast cancer cells, MDA-MB231, T47D:C42 and T47D:A18 cells were treated for 48 h with 0-0.8 μM z-Leu-Leu-Nle-CHO and various concentrations of Paclitaxel (0.008-1 μM) Following the z-Leu-Leu-Nle-CHO and Paclitaxel treatment, the cells were tested for growth inhibition as described above in Example 13.

[2] = system: cytochrome C and Smac/DLABLO; assay: Mitochondrial integrity by Western blot in RJ002L melanoma cells; type: cell-based, human; details: 10 μM
Experimental: Western blot analyses following z-Leu-Leu-Nle-CHO and control treatment of RJ002L melanoma cells were performed to determine the effect of z-Leu-Leu-Nle-CHO on pro-survival and pro-apoptotic proteins. Whole cell extracts were prepared and analyzed as described by Denning, M. F. et al., 1998, J Biol Chem 273: 29995-30002, 1998. The enriched mitochondria pellet and mitochondria-free cytosol of melanoma cells were prepared with the APO ALERT cell fraction kit (Clontech Laboratories, Inc. Palo Alto, Calif.) according to the manufacturer's instructions. For Western blot analysis, equal amounts of protein extracted from each sample (20-30 μg) were loaded into pre-cast 7% NuPAGE Tris-acetate gels or 4-12% NuPAGE Bis-tris gels (Invitrogen). Proteins were separated by SDS-PAGE and transferred to polyvinylidene difluoride membranes (Bio-Rad, Hercules, Calif.) using Invitrogen's buffering system. The indicated primary antibodies were incubated for indicated period of time, washed, and visualized by incubation with horseradish peroxidase-conjugated secondary antibodies and chemiluminescent reagents (Roche Diagnostics Corporation, Indianapolis, Ind.). […]
Mitochondrial integrity before and after exposure to z-Leu-Leu-Nle-CHO was evaluated using Western blot analysis as described above.

[3] = system: T47D:C42 breast cancer cells; assay: Cytotoxicity assay in T47D:C42 breast cancer cells; type: cell-based; details: T47D:C:4:2; T47D:C42 (p53 wild-type, ERα-negative); 48 h; read-out: IC50, cell growth inhibition
Experimental: Cytotoxicity and growth of transfected cells were estimated by a standard assay used for cancer drug screening, through the total amount of TCA-precipitated cell proteins after drug treatment (Likhitwitayawuid, K et al., 1993, J Nat Prod 56:30-38): 200 μl of cell suspension (10^5 cells/ml) were added to each well in a 96-well plate. After incubation at, 37° C., in 5% CO2 (30 minutes to 72 hours depending on the time course chosen), 50 μl 50% trichloroacetic acid was added to each well. After incubation at 4° C. for 1 hour, precipitates were washed with water 4-5 times and air dried overnight. One hundred μl of SRB solution (0.4% sulforhodamine B in 1% acetic acid, filtered before use) was added to each well for 30 minutes. Wells were washed with 1% acetic acid 4-5 times and air dried. Two hundred μl 10 mM Tris base was added to each well. Plates were shaken for 5-10 minutes and OD at 490 nm (OD490) was recorded via ELISA reader. To assay matrix invasion, 300 μl of cell suspension (10^6 cells/mL in serum-free medium) were added to invasion inserts (BioCoat Matrigel Invasion Chambers, Becton Dickinson, Bedford, Mass.) and incubated for 22 hours at 37° C., 5% CO2. Cells were stained with 0.9% crystal violet in 10% ethanol for 20 minutes. […] After removal of the non-invading cells from the interior of the inserts, stained invading cells were lysed in 10% acetic acid and OD595 was determined. […]

Q: What does the source list for `CCCC[C@@H](C=O)NC(=O)[C@H](CC(C)C)NC(=O)[C@H](CC(C)C)NC(=O)OCc1ccccc1` [z-Leu-Leu-Nle-CHO, N-benzyloxycarbonyl-leucyl-leucyl-norleucinal] (Cbz-Leu-Leu-[Nle]-aldehyde)?
A: effect on Paclitaxel cell growth inhibition [1]: potentiated the effects of Paclitaxel on cell growth inhibition; release of cytochrome C and Smac/DLABLO from mitochondria [2]: released into the cytoplasm of RJ002L melanoma cells as early as 1 hr; IC50 [3]: 380 nM
